How the values were obtained:
[1] = tested on: FPN1-deficient Flatiron (ffe/+) mice; assay: 59Fe gut absorption in Flatiron mice; format: in vivo; settings: 1.5 mg/kg, oral gavage, after one and two hours
Method: Temporal live cell imaging of labile iron levels in shDMT1 Caco-2 monolayers was performed after staining of Caco-2 monolayers with calcein green-AM (5 μM) in the apical and basolateral liquid for 30 minutes in pH=7.4 DMEM. […] Final volume administered was 1.5 mL/kg for each mouse, correcting for individual body weight. […] […] Radioactivity was quantified by gamma counting and calculated as the percentage of gavaged dose (±SEM). Experiments were performed with 4 genotyped-matched mice/day; preliminary analysis determined there were no gender effects on uptake of ^59Fe after intragastric gavage; mixed genders were used in the experiments shown.

[2] = tested on: wild type J774 macrophages; assay: 55Fe release from wild type J774 macrophages; format: cell-based, mouse; settings: same concentration as in deficient system
Method: J774 cells were grown in 12-well plates to ˜80% confluency. The cells were then treated with vehicle or hepcidin in fresh J774 Complete media (1 mL) and incubated at 37° C. for 1 hour. After incubation, the media was aspirated, and then a ^55Fe2Tf (50 nM) solution in J774 Complete media (1 mL) containing vehicle or hepcidin was added. The cells were incubated at 37° C. for 10 minutes, and the media was removed. The cells were rinsed with PBS (×2), and then rinsed with J774 Complete media (1 mL) for 10 minutes at 37° C. The media was aspirated, and J774 Complete media (1 mL) containing DMSO or small molecule (5 μM unless otherwise noted, 1000X dilution) was then added in the presence or absence of hepcidin. At the indicated times, aliquots (<100 μL) of the media were removed, diluted in scintillation cocktail, and radioactivity was determined by liquid scintillation counting. After completion of the experiment, the media was removed, the cells were rinsed with PBS, and the cells were lysed with 500 μL of 200 mM NaOH at 37° C. for 2 hours with continuous shaking (50 rpm). The cell lysate was diluted in scintillation cocktail and intracellular ^55Fe levels were determined by liquid scintillation counting. The % ^55Fe release was determined by the ratio of extracellular ^55Fe to total (intracellular+ extracellular) ^55Fe at the indicated times.

[3] = tested on: mice injected with turpentine oil (TO); assay: Acute anemia of inflammation model, turpentine oil injection; format: in vivo; settings: once daily for 3 days, 16 h post-injection
Method: FIGS. 27A-27E show hinokitiol efficacy in a model of acute anemia of inflammation (Al). Mice (male; C57BL/6; 7-week-old; n=8-10) were administered turpentine oil (TO) (5 mL/kg) or saline, and euthanized 3, 6, 12, 16, 24 h post injection. (A) Hepcidin mRNA measured by qPCR. (B) Proteins quantified by Western blot analysis. (C) Tissue and serum non-heme iron measured by bathophenanthroline colorimetric assay. (D) Hematocrit measured by centrifugation of heparinized capillaries. (E) Mice given compounds indicated once daily for 3 days. On the third day, mice injected with saline or TO, and euthanized 16 h post-injection.
Injection of turpentine oil (TO) is a common method to induce inflammation in mice. […] As a result, iron buildup occurred in the duodenum and spleen. Moreover, serum iron decreased (FIG. 27C) without affecting hematocrit values (FIG. 27D).

[4] = tested on: DMT1-deficient Caco-2 monolayers; assay: 55Fe immunoprecipitation of ferritin in Caco-2 monolayers; format: cell-based, Human; settings: apical hinokitiol 500 nM
Method: Immunoprecipitation of ferritin was performed using human anti-FTL1 (Santa Cruz sc-74513) and Protein G PLUS-Agarose beads (Santa Cruz sc-2002). […] Cell lysate was incubated with primary antibody (1:100 dilution) at room temperature for 1 hour, then with the secondary antibody (1:10 dilution) at room temperature for 1 hour with constant mixing. Repeated centrifugations and PBS rinses were performed, and the radioactive levels in the agarose pellet were determined by dilution in scintillation fluid.

[5] = tested on: fet3Δftr1Δ yeast; assay: Metal selectivity in yeast (ICP-MS); format: cell-based, Saccharomyces cerevisiae; settings: 10 μM hinokitiol, 100 μM FeCl3
Method: Hinokitiol-mediated changes in intracellular metal levels were determined using growth rescue conditions from FIG. 13H and an adaptation of the Fe uptake study in FIG. 1G. Specifically, wild type and fet3Δftr1Δ yeast were grown in YPD media overnight, rinsed, and incubated in SD media without FeCl3 at 30° C. for 3 hours. Yeast were then resuspended at an OD600=0.50 in SD media (50 mM MES/Tris, pH=7.0) containing 100 μM FeCl3 and either DMSO vehicle or 10 μM hinokitiol. After 2.5 hours of incubation, cells were centrifuged at 5° C., rinsed twice with cold 10 mM EDTA in 50 mM Tris/HCl buffer (pH=6.5), and once with cold metal-free water. Cells were then lyophilized for 48 hours. The lyophilized cells were digested with a 5:1 mixture of HNO3:HCl and then subjected to an automated sequential microwave digestion in a CEM Discover SP-D microwave digester. The resulting clear solution was diluted in metal-free water, and elemental analysis was performed by ICP-MS.

[6] = Exchangeability of ferric iron bound to hinokitiol; format: physicochemical
Method: The reversible exchange of ferric iron bound to hinokitiol was determined similar to previously described (69). […] The solution was equilibrated for 1 hour at 37° C., and then an equal amount of ^55FeCl3 (100 nM) was added. The solution was incubated at 37° C., and at the indicated time points an aliquot was taken and added to water. The iron-hinokitiol complex was immediately separated from unbound iron through extraction with ethyl acetate and the radioactive counts were determined by scintillation counting.

[7] = WST-8 toxicity in MEL cells; format: cell-based, mouse; settings: mouse, wild type MEL cells; Wild Type MEL, WST-8 assay after ≥24 hours of incubation
Method: (§1) Determination of small molecule-mediated toxicity in Caco-2, MEL, and/or J774 cells was performed according to manufacturer instructions using a WST-8 kit (Cayman Chemical 10010199) similar to previously reported (76) using a 1000× stock of the indicated small molecule in DMSO to give the indicated final concentration.

[8] = tested on: MEL; assay: WST-8 toxicity in MEL cells; format: cell-based, mouse; settings: MEL cells, three days, 1 μM
Method: as §1

CC(C)c1cccc(=O)c(O)c1 [hinokitiol]
59Fe absorption [1]: increased ^59Fe absorption | effect on iron release in wild type system [2]: negligible effects | hypoferremia induced by TO injection [3]: mitigated | 55Fe incorporation into ferritin [4]: allows for ^55Fe incorporation into ferritin | intracellular iron levels relative to vehicle-treated controls [5]: increased | intracellular levels of manganese, cobalt, nickel, zinc, and copper [5]: unchanged | time to equilibrium between 55Fe- and 56Fe-hinokitiol complex ([6]; 10 mM Mes/Tris, pH 7.0): within one hour | exchange of bound 56Fe with 55Fe in solution ([6]; within 10 minutes, pH 7.0, 37° C.): > 20% | EC90 [7]: 24 µM | observable toxicity [8]: without observable toxicity

From patent US12084411B2, “Hinokitiol analogues, methods of preparing and pharmaceutical compositions thereof” (The Board of Trustees of the University of Illinois, priority 2018, dated 2024)
